Experiment [1] deals with T1, EcRelA (Escherichia coli, UniProt P0AG20).
T1 construct: gene relA
It counts as biochemical.

For experiment [2], the target named is Francisella tularensis RelA (Francisella tularensis subspecies tularensis SCHU S4). Kind of experiment: SEC. (In general: In gel filtration, larger molecules generally elute earlier.)

The term stoichiometry N denotes a count of units in the complex or per binding partner.

Like-named read-outs stand apart in the source and are kept apart here.

T1 sequence (P0AG20 whole entry): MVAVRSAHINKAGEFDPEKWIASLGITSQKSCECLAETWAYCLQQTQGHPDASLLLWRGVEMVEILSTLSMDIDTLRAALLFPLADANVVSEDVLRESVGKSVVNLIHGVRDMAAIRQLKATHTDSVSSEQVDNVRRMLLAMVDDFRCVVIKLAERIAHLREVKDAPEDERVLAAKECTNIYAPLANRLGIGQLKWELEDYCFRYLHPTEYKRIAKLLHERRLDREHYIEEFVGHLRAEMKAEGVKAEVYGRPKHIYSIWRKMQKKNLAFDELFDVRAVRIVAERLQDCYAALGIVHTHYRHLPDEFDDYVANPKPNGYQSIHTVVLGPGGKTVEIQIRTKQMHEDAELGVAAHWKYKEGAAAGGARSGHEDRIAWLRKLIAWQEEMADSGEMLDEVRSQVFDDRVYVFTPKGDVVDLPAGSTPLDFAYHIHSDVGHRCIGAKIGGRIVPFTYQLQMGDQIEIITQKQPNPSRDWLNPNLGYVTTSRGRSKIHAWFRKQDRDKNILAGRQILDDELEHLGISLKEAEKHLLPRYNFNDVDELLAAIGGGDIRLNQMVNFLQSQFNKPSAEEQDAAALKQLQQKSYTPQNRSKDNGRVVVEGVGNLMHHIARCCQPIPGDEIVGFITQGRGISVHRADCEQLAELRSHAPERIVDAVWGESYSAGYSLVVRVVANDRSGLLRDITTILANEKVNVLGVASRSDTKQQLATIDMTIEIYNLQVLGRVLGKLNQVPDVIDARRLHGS

Consider `Nc1nc2c(ncn2[C@@H]2O[C@H](COP(=O)(O)OP(=O)(O)OP(=O)(O)O)[C@@H](O)[C@H]2O)c(=O)[nH]1` [GTP], for which the “IP RP HPLC end-point assay of AMP formation” value in experiment [1] was “Both EcRelA and FtRelA demonstrated basal levels of activity in the absence of stalled ribosomes”.

In experiment [2], Francisella tularensis RelA (enzyme) showed a stoichiometry N of 2.

Regarding `Nc1ncnc2c1ncn2[C@@H]1O[C@H](COP(=O)(O)OP(=O)(O)OP(=O)(O)O)[C@@H](O)[C@H]1O` [ATP], the “IP RP HPLC end-point assay of AMP formation” value in experiment [1] (2 mM ATP and 2 mM GTP, 0.5 μM RelA, with or without stalled ribosomal complexes, 15 mM MgCl2, pH 8.0, 30°C) was “Both EcRelA and FtRelA demonstrated basal levels of activity in the absence of stalled ribosomes”.

The values are drawn from PMC4708007 (Bioscience Reports, 2015).
